{"source": "patent US20250041387A1", "about": "“POLYPEPTIDE SEQUENCE OF KDM6B AND APPLICATION OF KDM6B IN REGULATING AND CONTROLLING FUNCTION OF MESENCHYMAL STEM CELL” (BEIJING STOMATOLOGICAL HOSPITAL, CAPITAL MEDICAL UNIVERSITY, priority 2021, published 2025)", "key": {"[1]": {"biological_target": "KDM6B/WDR5 protein complex (Homo sapiens, UniProt P61964)", "assay": "Co-IP of KDM6B/WDR5 complex in bone marrow mesenchymal stem cells", "assay_type": "cell-based", "design": "endogenous in cells; host or cells: bone marrow mesenchymal stem cells", "conditions": "FIG. 3C", "method": "Protein was extracted from cells of knockout group and overexpression group using IP lysate. The knockout group cells SCAPs-Scramsh and SCAPs-KDM6Bsh, SCAPs-Scramsh and SCAPs-WDR5sh, BMSCs-Scramsh and BMSCs-WDR5sh were added with KDM6B antibody, WDR5 antibody, and IgG antibody, respectively, and then rotated on a shaker at 4° C. overnight. On the next day, the cells were added with Protein A/G beads and rotated on a rotary shaker at 4° C. for 2 hours. A complex of protein-antibody-agarose bead was formed, and the formation of a protein complex of KDM6B and WDR5WB was detected by WB. The overexpression group cells SCAPs-Vector, SCAPs-HA-KDM6B, SCAPs-HA-KDM6B-mut102, and SCAPs-HA-KDM6B-mut114 were added with ProteinA/G beads with HA antibody, and cells SCAPs Vector and SCAPs-Myc-WDR5 were added with ProteinA/G beads with Myc antibody. All cells were incubated overnight to form a complex of protein-antibody-agarose bead. The formation of a protein complex of KDM6B and WDR5 was detected by WB method. • (2) Grouping: Input group (loading amount of 25 μg); antibody group (loading amount of 800 μg, 2 μg of antibody); IgG group (loading amount of 800 μg, 2 μg of antibody). Samples were diluted with lysate. • (3) Preparation of protein A/G beads\nThe protein A/G beads were washed 4 times with PBS, and centrifuged at 2000 g for 2 minutes. The supernatant was carefully collected, and added with PBS to achieve a content of protein A/G beads of 50%. 30 μL of protein A/G beads was added to each tube, and rotated at 4 degrees overnight. • (4) The samples were centrifuged at 5000 rpm for 30 s at 4° C., and washed 4-5 times with PBS by inverted up and down. Then the samples were centrifuged, and the supernatant was discarded. The samples were added with 30 μL of 2× loading buffer, and placed at 100° C. for 5 minutes. • (5) The supernatant was subjected to electrophoresis."}, "WDR5 synthetic protein": {"biological_target": "WDR5 synthetic protein (Homo sapiens, UniProt P61964)", "assay": "Polypeptide microarray of KDM6B incubated with biotin-labeled WDR5", "assay_type": "binding", "conditions": "FIG. 3A, B; positive = optical density more than 30%", "excerpt": "• (1) Synthesis of polypeptide chip: A polypeptide chip was designed by overlapping and synthesized according to the sequence of KDM6B protein, with a total of two arrays. • (2) Synthesis of polypeptide microarray: A matrix membrane was activated, and placed on a fully automated polypeptide chip synthesizer. A Fmoc-amino acid solution was automatically transferred to a specific position on the activated membrane according to the set procedure, to react with the membrane. The membrane was immersed sequentially into the blocking solution I and II to block side chains, and washed with dimethyl formamide (DMF). The membrane was placed in a deprotection solution to remove the Fmoc protective group at the amino-terminal, then washed with DMF, and dried with ethanol. The above steps were repeated until all polypeptide microarrays were completely synthesized. After the synthesis was completed, the protective groups of the side chains were removed with specific organic reagents. […] The control group was incubated with the blocking solution. • (6) Streptavidin-HRP incubation: The reaction reagent Streptavidin-HRP (High Sensitivity Streptavidin-HRP (prod #21133)) was diluted with the blocking solution in an ratio of 1:10000, and then the polypeptide microarray chip was incubated with 5 ml of the diluted Streptavidin-HRP under shaking at room temperature for 2 hours, and washed. • (7) Color development: ECL luminescence reagent was added, and digital imaging was performed on a Chempchemi digital imager. • (8) Scan of polypeptide microarray chip and data analysis of color spot: The colored polypeptide microarray chip was imaged at 425 nm using the Chempchemi Imaging System with 200 s exposure. The optical density of colored spots was analyzed using TotalLab image analysis software, and the optical density of each colored spot was calculated using the “Spot Edge Average” algorithm in the software, with the optical density of the surrounding background of each colored spot as a reference. […]"}}, "data": [{"substance": "FITC-(Acp)-IVPMIHVSWNVARTVYGRKKRRQRRR [peptide 152]", "values": [{"measurement": "opening/blocking of the binding of KDM6B/WDR5 protein complex (Co-IP)", "setting": "[1]", "value": "could not effectively block the binding"}, {"measurement": "binding degree to WDR5 on polypeptide microarray (optical density of spots)", "setting": "WDR5 synthetic protein", "value": "higher binding degree"}]}]}
